# Experimental data: patent US4316894A, “Antibiotic SF-1130-x3 3 substance and production and use thereof” (Meiji Seika Kaisha, Ltd., priority 1979, dated 1982)
# pIC50: −log10 of the molar value.
# Key:
# α-glucosidase = test: Determination of the activity of inhibiting α-glucosidase; type: biochemical, pig; conditions: measured in the same way as above; read-out: ID50 values (comparison substances, measured in the same way as above)
# Text: The compound of this invention is useful for highly inhibiting the enzymatic reaction of glucosidase and particularly for inhibiting the enzymatic reaction of α-glucosidase as well as the enzymatic reaction of saccharase. Such the inhibitory activity of the compound of this invention may be estimated according to the following procedure with the α-glucosidase prepared from ileum mucosa of pig as disclosed in the literature "Acta Chem. Scand." vol. 12, page 1997 (1958).
# (1) Determination of the activity of inhibiting α-glucosidase. There are prepared the following four solutions:
# Solution A: A solution of the enzyme (α-glucosidase) having appropriately been diluted to a desired enzyme concentration with 0.1 M maleate buffered solution (pH 6.0)
# Solution B: 0.1 M maleate buffered solution (pH 6.0)
# Solution C: An aqueous solution of 0.014 M p-nitrophenyl-α-D-glycoside (as the substrate) in water
# Solution D: An aqueous solution of 0.1 M sodium carbonate in water […]
# In the above assay, degree (%) of inhibition for the inhibitor sample to the α-glucosidase is calculated according to the following equation: […]
# [1] = Suppression of elevation of blood sugar level in mice given starch or sucrose orally; type: in vivo, ICR-strain male mice; conditions: test drug 10 mg/kg oral (dose of the x1 + x2 mixture not stated), 30 minutes after administration, ICR male mice, six per group
# Protocol: The test was carried out by the following procedure: Test animal was ICR-strain male mice (six mice per group, weighing 25 g in average) which had been abstained from water for 20 hours. 1 g/kg of starch or 2.5 g/kg of sucrose was orally given to the mice. At the same time, 10 mg/kg of the compound of this invention or 10 mg/kg of deoxynojirimycin as a comparative drug was orally administered to these mice. 30 minutes after the administration, the glucose level in blood was measured.
pIC50 (α-glucosidase),SMILES,"Blood sugar level, groups receiving starch ([1]; starch 1 g/kg oral)","Blood sugar level, groups receiving sucrose ([1]; sucrose 2.5 g/kg oral)"
3.44,OC[C@H]1NC(O)[C@H](O)[C@@H](O)[C@@H]1O (stereo partly drawn) [nojirimycin],,
,OC[C@H]1NC[C@H](O)[C@@H](O)[C@@H]1O [Deoxynojirimycin],101 ± 22.9 mg/dL,93 ± 15.4 mg/dL
